Measurements as given in patent US20060035920A1, “Chk-1 inhibitors” (Millennium Pharmaceuticals, Inc., priority 2004, published 2006).

Target: T1, Recombinant human Chk1 (GST-Chk1) (Homo sapiens, UniProt O14757)
T1 construct: made in house; host or cells: insect cells (baculovirus, Bac-to-Bac system)
T1 sequence (O14757 1-476): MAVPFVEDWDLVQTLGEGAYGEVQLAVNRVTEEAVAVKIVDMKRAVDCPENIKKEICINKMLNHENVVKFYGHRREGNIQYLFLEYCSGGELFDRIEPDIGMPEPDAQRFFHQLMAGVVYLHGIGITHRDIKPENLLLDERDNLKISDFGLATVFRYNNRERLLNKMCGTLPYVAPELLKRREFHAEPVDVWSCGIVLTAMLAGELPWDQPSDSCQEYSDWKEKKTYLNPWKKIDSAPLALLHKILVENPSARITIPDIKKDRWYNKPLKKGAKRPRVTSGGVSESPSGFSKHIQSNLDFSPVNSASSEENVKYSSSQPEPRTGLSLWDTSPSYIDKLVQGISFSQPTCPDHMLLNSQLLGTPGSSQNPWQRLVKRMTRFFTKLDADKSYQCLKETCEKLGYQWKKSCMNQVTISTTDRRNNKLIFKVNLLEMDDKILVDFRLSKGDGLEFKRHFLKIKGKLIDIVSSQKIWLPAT
Assay: Chk1 DELFIA Kinase Assay
Type: biochemical
Procedure: Recombinant human Chk1 was expressed as a fusion protein with glutathione S-transferase at the amino-terminus (GST-Chk1) using standard baculovirus vectors and (Bac-to-Bac®) insect cell expression system purchased from GIBCO™ Invitrogen. Recombinant protein expressed in insect cells was purified using glutathione sepharose (Amersham Biotech) using standard procedures described by the manufacturer.
Chk1 DELFIA® Kinase Assay:
Assays (25 μL) utilized 2 nM GST-Chk1 containing 10 mM Tris, pH 7.5, 20% glycerol, 50 mM sodium chloride (NaCl), 0.01% Surfact-Amps® 20, 1 μM peptide stubstrate (Biotin-GLYRSPSMPEN-amide) (SEQ ID NO: 2), 01.% BSA, 2 mM DTT, 4% DMSO, 600 μM ATP, 10 mM MgCl2 and reacted for 50 minutes at room temperature. Reactions were terminated with 100 μL of Stop buffer containing 1% BSA, 10 mM Tris, pH 8.0, 150 mM NaCl, 100 mM EDTA. Stopped reactions (100 μL) were transferred to 96 well NeutrAvidin plates (Pierce) to capture the biotin-peptide substrate during a 30 minute room temperature incubation. Wells were washed and reacted with 100 μL PerkinElmer Wallac Assay Buffer containing 21.5 ng/ml anti-phospho-Ser216-Cdc25c rabbit polyclonal antibody from Cell Signaling Technology (Beverly, Mass.) and 292 ng/ml europium labeled anti-rabbit-IgG for 1 hour at room temperature. Wells were washed and europium released from the bound antibody by addition of Enhancement Solution (100 μL) (PerkinElmer Wallac) and detected using a Perkin Elmer Wallac Envison™ 2100 multilabel reader using standard manufacturer settings.

[1] = GST-Chk1 kinase assay, bound given in nM

IC50 [1] [nM]	IC50 (GST-Chk1 in vitro kinase assay, bound given in μM) [nM]	Structure (SMILES)
< 500		CCn1c(=O)c2c(C)[nH]nc2c2cc(/C=C/CN(C(C)C)C(C)C)ccc21 [Compound I-44, 8-[(1E)-3-(diisopropylamino)prop-1-en-1-yl]-5-ethyl-3-methyl-2,5-dihydro-4H-pyrazolo[4,3-c]quinolin-4-one]
< 500		Cc1[nH]nc2c1c(=O)n(C)c1ccc(C#CCN)cc21 [Compound I-23, 8-(3-aminoprop-1-yn-1-yl)-3,5-dimethyl-2,5-dihydro-4H-pyrazolo[4,3-c]quinolin-4-one]
< 500		CCn1c(=O)c2c(C)[nH]nc2c2cc(C#CCN3[C@H](C)CCC[C@@H]3C)ccc21 [Compound I-37, 8-{3-[(2R,6S)-2,6-dimethylpiperidin-1-yl]prop-1-yn-1-yl}-5-ethyl-3-methyl-2,5-dihydro-4H-pyrazolo[4,3-c]quinolin-4-one]
< 500		CCn1c(=O)c2c(C)[nH]nc2c2cc(/C=C/CN(C)Cc3ccccc3)ccc21 [Compound I-45, 8-{(1E)-3-[benzyl(methyl)amino]prop-1-en-1-yl}-5-ethyl-3-methyl-2,5-dihydro-4H-pyrazolo[4,3-c]quinolin-4-one]
< 500		CCn1c(=O)c2c(C)[nH]nc2c2cc(/C=C/CN3CCCC3)ccc21 [Compound I-25, 5-ethyl-3-methyl-8-[(1E)-3-pyrrolidin-1-ylprop-1-en-1-yl]-2,5-dihydro-4H-pyrazolo[4,3-c]quinolin-4-one]
< 500		CCN(CC)CCc1ccc(-c2ccc3c(c2)c2n[nH]c(C)c2c(=O)n3CC)s1 [Compound I-82, 8-{5-[2-(diethylamino)ethyl]-2-thienyl}-5-ethyl-3-methyl-2,5-dihydro-4H-pyrazolo[4,3-c]quinolin-4-one]
< 500		CCn1c(=O)c2c(C)[nH]nc2c2cc(-c3ccc(CN4CCCC4)s3)ccc21 [Compound I-53, 5-ethyl-3-methyl-8-[5-(pyrrolidin-1-ylmethyl)-2-thienyl]-2,5-dihydro-4H-pyrazolo[4,3-c]quinolin-4-one]
< 500		CCn1c(=O)c2c(CCOC)[nH]nc2c2cc(C#CCN3CCCC3)ccc21 [Compound I-14, 5-ethyl-3-(2-methoxyethyl)-8-(3-pyrrolidin-1-ylprop-1-yn-1-yl)-2,5-dihydro-4H-pyrazolo[4,3-c]quinolin-4-one]
> 500	< 1000	CCn1c(=O)c2c(C)[nH]nc2c2cc(-c3cn[nH]c3)ccc21 [Compound I-52, 5-ethyl-3-methyl-8-(1H-pyrazol-4-yl)-2,5-dihydro-4H-pyrazolo[4,3-c]quinolin-4-one]
< 500		CCn1c(=O)c2c(C)[nH]nc2c2cc(C#CCN3CCN(C)CC3)ccc21 [Compound I-8, 5-ethyl-3-methyl-8-[3-(4-methylpiperazin-1-yl)prop-1-yn-1-yl]-2,5-dihydro-4H-pyrazolo[4,3-c]quinolin-4-one]
< 500		CCn1c(=O)c2c(C)[nH]nc2c2cc(C#CCN3[C@H](C)CC[C@H]3C)ccc21 (racemic) [Compound I-2, 8-{3-[(2S,5S)-2,5-dimethylpyrrolidin-1-yl]prop-1-yn-1-yl}-5-ethyl-3-methyl-2,5-dihydro-4H-pyrazolo[4,3-c]quinolin-4-one]
< 500		Cc1[nH]nc2c1c(=O)[nH]c1ccc(C#CCN3CCCC3)cc12 [Compound I-13, 3-methyl-8-(3-pyrrolidin-1-ylprop-1-yn-1-yl)-2,5-dihydro-4H-pyrazolo[4,3-c]quinolin-4-one]
< 500		Cc1[nH]nc2c1c(=O)n(CCF)c1ccc(-c3ccc(CN4CCCC4)s3)cc21 [Compound I-47, 5-(2-fluoroethyl)-3-methyl-8-[5-(pyrrolidin-1-ylmethyl)-2-thienyl]-2,5-dihydro-4H-pyrazolo[4,3-c]quinolin-4-one]
< 500		CCn1c(=O)c2c(C)[nH]nc2c2cc(C#CCN3CCCCC3)ccc21 [Compound I-9, 5-ethyl-3-methyl-8-(3-piperidin-1-ylprop-1-yn-1-yl)-2,5-dihydro-4H-pyrazolo[4,3-c]quinolin-4-one]
< 500		CCCn1c(=O)c2c(C)[nH]nc2c2cc(-c3ccc(CN(C)C)s3)ccc21 [Compound I-56, 8-{5-[(dimethylamino)methyl]-2-thienyl}-3-methyl-5-propyl-2,5-dihydro-4H-pyrazolo[4,3-c]quinolin-4-one]
< 500		CCn1c(=O)c2c(C)[nH]nc2c2cc(C#CC(C)(C)N)ccc21 [Compound I-15, 8-(3-amino-3-methylbut-1-yn-1-yl)-5-ethyl-3-methyl-2,5-dihydro-4H-pyrazolo[4,3-c]quinolin-4-one]
< 500		CCCn1c(=O)c2c(C)[nH]nc2c2cc(C#CCN3CCCC3)ccc21 [Compound I-19, 3-methyl-5-propyl-8-(3-pyrrolidin-1-ylprop-1-yn-1-yl)-2,5-dihydro-4H-pyrazolo[4,3-c]quinolin-4-one]
< 500		CCn1c(=O)c2c(C)[nH]nc2c2cc(C#CCN3CCC3)ccc21 [Compound I-31, 8-(3-azetidin-1-ylprop-1-yn-1-yl)-5-ethyl-3-methyl-2,5-dihydro-4H-pyrazolo[4,3-c]quinolin-4-one]
< 500		Cc1[nH]nc2c1c(=O)n(CC(F)(F)F)c1ccc(C#CCN3CCCC3)cc21 [Compound I-20, 3-methyl-8-(3-pyrrolidin-1-ylprop-1-yn-1-yl)-5-(2,2,2-trifluoroethyl)-2,5-dihydro-4H-pyrazolo[4,3-c]quinolin-4-one]
< 500		CCn1c(=O)c2c(C)[nH]nc2c2cc(C#CCN(C)C)ccc21 [Compound I-11, 8-[3-(dimethylamino)prop-1-yn-1-yl]-5-ethyl-3-methyl-2,5-dihydro-4H-pyrazolo[4,3-c]quinolin-4-one]
